The results in this text go back to patent US20240190880A1 (THE REGENTS OF THE UNIVERSITY OF MICHIGAN, priority 2021, published 2024).

The target in the first experiment is T1, ER (Homo sapiens, UniProt P03372).
T1 construct: host or cells: T47D and MCF7 human breast cancer cells
T1 sequence (P03372 1-595): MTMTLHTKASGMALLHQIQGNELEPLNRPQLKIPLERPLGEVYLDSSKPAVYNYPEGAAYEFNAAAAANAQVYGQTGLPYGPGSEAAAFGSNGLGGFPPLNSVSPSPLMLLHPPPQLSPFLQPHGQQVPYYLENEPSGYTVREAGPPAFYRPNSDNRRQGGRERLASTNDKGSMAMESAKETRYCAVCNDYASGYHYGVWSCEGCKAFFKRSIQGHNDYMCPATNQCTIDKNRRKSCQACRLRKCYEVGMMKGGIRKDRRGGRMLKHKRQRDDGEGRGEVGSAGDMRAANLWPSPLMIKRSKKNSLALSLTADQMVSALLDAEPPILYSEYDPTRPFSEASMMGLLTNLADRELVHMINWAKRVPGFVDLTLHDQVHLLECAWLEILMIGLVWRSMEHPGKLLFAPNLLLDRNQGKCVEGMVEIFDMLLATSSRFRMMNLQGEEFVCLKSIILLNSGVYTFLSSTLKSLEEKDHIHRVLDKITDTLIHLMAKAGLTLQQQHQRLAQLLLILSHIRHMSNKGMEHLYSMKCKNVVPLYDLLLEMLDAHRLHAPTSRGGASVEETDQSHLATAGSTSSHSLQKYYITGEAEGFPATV
As to the kind of experiment: ER degradation activity, in-cell western blot analysis in T47D cells. Format: cell-based. The conditions noted are these: 16 hours, Table A does not say which cell line (T47D or MCF7), read-out: Potency (DC50). How it is done:
ER degradation activity was evaluated in the human breast cancer cell line T47D and MCF7 purchased from the American Type Culture Collection (ATCC), Manassas, VA, and maintained and cultured in Dulbecco's Modified Eagle's medium (DMEM) containing 10% fetal bovine serum, 1 unit/ml of penicillin and 1 μg/ml of streptomycin.
The protocol for the in-cell western blot analysis: a. seed cells in black-sided/clear bottom 96- or 384-well plates at 40,000 or 10,000 cells/well, overnight; b. add diluted compounds (final 0.5% DMSO), 16 hours. […] RT 2 h, gentle shaking. Negative control: cells plus secondary antibodies (no primary antibodies); e. wash ×4 with PBS+0.05-0.1% Tween 20, gentel shaking; f. anti-rabbit-680 and anti-mouse-800 (both 1:1000 in LiCor block+0.05% Tween20, RT 1 h, gentle shaking, no light. LI-COR: 0.2% to reduce background; g. wash×4 with PBS+0.05% Tween 20, gental shaking; h. add 100 μL or 25 μL of PBS to each well and read on CLX plate reader. The relative ER percentage in treated cells were obtained by comparing the values of treated wells to those in untreated and DMSO-treated wells as 100%.
The term DC50 denotes the midpoint of the concentration-degradation curve. Take `O=C1CCC(N2Cc3cc4c(cc3C2=O)CN(CC2CCN(c3ccc([C@@H]5c6ccc(O)cc6CC[C@@H]5c5ccccc5)cc3)CC2)C4)C(=O)N1` (mixture of isomers) [E 1, Rac-3-(6-((1-(4-((1R,2S)-6-hydroxy-2-phenyl-1,2,3,4-tetrahydronaphthalen-1-yl)phenyl)piperidin-4-yl)methyl)-1-oxo-3,5,6,7-tetrahydropyrrolo[3,4-f]isoindol-2(1H)-yl)piperidine-2,6-dione]: the 50% degradation concentration (DC50) was > 100 nM. As to `O=C1CCC(N2C(=O)c3cc4c(cc3C2=O)CN(C2CCC(C(=O)NC3CN(c5ccc([C@@H]6c7ccc(O)cc7CC[C@@H]6c6ccccc6)cc5)C3)CC2)C4)C(=O)N1` (stereo partly drawn) [E 336], the 50% degradation concentration (DC50) was > 100 nM.

As for `O=C1CCC(N2Cc3cc4c(cc3C2=O)CN(C2CCN(CC3CN(c5ccc([C@H]6c7ccc(O)cc7CC[C@H]6c6ccc(F)cc6)cc5)C3)CC2)C4)C(=O)N1` (stereo partly drawn) [E 279, 3-(6-(1-((1-(4-((1S,2R)-2-(4-fluorophenyl)-6-hydroxy-1,2,3,4-tetrahydronaphthalen-1-yl)phenyl)azetidin-3-yl)methyl)piperidin-4-yl)-1-oxo-3,5,6,7-tetrahydropyrrolo[3,4-f]isoindol-2(1H)-yl)piperidine-2,6-dione], the DC50 fell in the range of 10 to 100 nM. Same read-out and setting: to `C[C@@H]1Cc2c([nH]c3ccccc23)[C@@H](c2c(F)cc(C3CCC(C(=O)N4CCC(N5Cc6cc7c(cc6C5)C(=O)N(C5CCC(=O)NC5=O)C7=O)CC4)CC3)cc2F)N1CC(F)F` (stereo partly drawn) [E246, 6-(1-(4-(4-((1R,3R)-2-(2,2-difluoroethyl)-3-methyl-2,3,4,9-tetrahydro-1H-pyrido[3,4-b]indol-1-yl)-3,5-difluorophenyl)cyclohexane-1-carbonyl)piperidin-4-yl)-2-(2,6-dioxopiperidin-3-yl)-6,7-dihydropyrrolo[3,4-f]isoindole-1,3(2H,5H)-dione] belongs < 10 nM; to `CCC(=C(c1ccc(O)cc1)c1ccc(N2CCC3(CC2)CN(C(=O)CN2Cc4cc5c(cc4C2)C(=O)N(C2CCC(=O)NC2=O)C5=O)C3)cc1)c1ccccc1` (stereo not drawn) [E 242, 2-(2,6-dioxopiperidin-3-yl)-6-(2-(7-(4-(1-(4-hydroxyphenyl)-2-phenylbut-1-en-1-yl)phenyl)-2,7-diazaspiro[3.5]nonan-2-yl)-2-oxoethyl)-6,7-dihydropyrrolo[3,4-f]isoindole-1,3(2H,5H)-dione], 10 to 100 nM.

For `C[C@@H]1Cc2c([nH]c3ccccc23)[C@@H](c2cnc(N3CCC4(CCN(C(=O)CN5Cc6cc7c(cc6C5)C(=O)N(C5CCC(=O)NC5=O)C7=O)CC4)CC3)nc2)N1CC(F)F` (stereo partly drawn) [E 258, 6-(2-(9-(5-((1R,3R)-2-(2,2-difluoroethyl)-3-methyl-2,3,4,9-tetrahydro-1H-pyrido[3,4-b]indol-1-yl)pyrimidin-2-yl)-3,9-diazaspiro[5.5]undecan-3-yl)-2-oxoethyl)-2-(2,6-dioxopiperidin-3-yl)-6,7-dihydropyrrolo[3,4-f]isoindole-1,3(2H,5H)-dione], the 50% degradation concentration (DC50) was < 10 nM. On the same count and under the same terms, to `O=C1CCC(N2C(=O)c3cc4c(cc3C2=O)CN(CC(=O)N2CCC3(CC2)CCN(c2ccc([C@@H]5c6ccc(O)cc6CC[C@@H]5c5ccccc5)cc2)CC3)CC4)C(=O)N1` (mixture of isomers) [E 172, rac-2-(2,6-dioxopiperidin-3-yl)-6-(2-(9-(4-((1R,2S)-6-hydroxy-2-phenyl-1,2,3,4-tetrahydronaphthalen-1-yl)phenyl)-3,9-diazaspiro[5.5]undecan-3-yl)-2-oxoethyl)-5,6,7,8-tetrahydro-1H-pyrrolo[3,4-g]isoquinoline-1,3(2H)-dione] belongs 10 to 100 nM.

Turning to `CN(C1CCC(CN2Cc3cc4c(cc3C2)C(=O)N(C2CCC(=O)NC2=O)C4=O)CC1)C1CCN(c2ccc([C@@H]3c4ccc(O)cc4CC[C@@H]3c3ccccc3)cc2)CC1` (stereo partly drawn) [E 289, 2-(2,6-dioxopiperidin-3-yl)-6-((4-((1-(4-((1R,2S)-6-hydroxy-2-phenyl-1,2,3,4-tetrahydronaphthalen-1-yl)phenyl)piperidin-4-yl)(methyl)amino)cyclohexyl)methyl)-6,7-dihydropyrrolo[3,4-f]isoindole-1,3(2H,5H)-dione], the half-maximal degradation concentration (DC50) is > 100 nM. Regarding `O=C1CCC(N2C(=O)c3cc4c(cc3C2=O)CN(CC(=O)N2CCC(C(=O)N3CC(Oc5ccc([C@@H]6c7ccc(O)cc7CC[C@@H]6c6ccccc6)cc5)C3)CC2)C4)C(=O)N1` (stereo partly drawn) [E 376, 2-(2,6-dioxopiperidin-3-yl)-6-(2-(4-(3-(4-((1R,2S)-6-hydroxy-2-phenyl-1,2,3,4-tetrahydronaphthalen-1-yl)phenoxy)azetidine-1-carbonyl)piperidin-1-yl)-2-oxoethyl)-6,7-dihydropyrrolo[3,4-f]isoindole-1,3(2H,5H)-dione], the DC50 was > 100 nM. Same read-out and setting: the same measure for `C[C@@H]1Cc2c([nH]c3ccccc23)[C@@H](c2c(F)cc(N3CC4(CCN(CC(=O)N5Cc6cc7c(cc6C5)C(=O)N(C5CCC(=O)NC5=O)C7)CC4)C3)cc2F)N1CC(F)F` (stereo partly drawn) [E 98, 3-(6-(2-(2-(4-((1R,3R)-2-(2,2-difluoroethyl)-3-methyl-2,3,4,9-tetrahydro-1H-pyrido[3,4-b]indol-1-yl)-3,5-difluorophenyl)-2,7-diazaspiro[3.5]nonan-7-yl)acetyl)-1-oxo-3,5,6,7-tetrahydropyrrolo[3,4-f]isoindol-2(1H)-yl)piperidine-2,6-dione]: < 10 nM; for `C[C@@H]1Cc2c([nH]c3ccccc23)[C@@H](c2c(F)cc(C3CCN(C(=O)[C@H]4CC[C@H](N5Cc6cc7c(cc6C5)C(=O)N(C5CCC(=O)NC5=O)C7=O)CC4)CC3)cc2F)N1CC(F)F` (stereo partly drawn) [E 393, 6-((1R,4r)-4-(4-(4-((1R,3R)-2-(2,2-difluoroethyl)-3-methyl-2,3,4,9-tetrahydro-1H-pyrido[3,4-b]indol-1-yl)-3,5-difluorophenyl)piperidine-1-carbonyl)cyclohexyl)-2-(2,6-dioxopiperidin-3-yl)-6,7-dihydropyrrolo[3,4-f]isoindole-1,3(2H,5H)-dione]: < 10 nM.

Regarding `C[C@@H]1Cc2c([nH]c3ccccc23)[C@@H](c2c(F)cc(N3CC4(CCN4CC(=O)N4Cc5cc6c(cc5C4)C(=O)N(C4CCC(=O)NC4=O)C6)C3)cc2F)N1CC(F)F` (stereo partly drawn) [E 61, 3-(6-(2-(6-(4-((1R,3R)-2-(2,2-difluoroethyl)-3-methyl-2,3,4,9-tetrahydro-1H-pyrido[3,4-b]indol-1-yl)-3,5-difluorophenyl)-1,6-diazaspiro[3.3]heptan-1-yl)acetyl)-1-oxo-3,5,6,7-tetrahydropyrrolo[3,4-f]isoindol-2(1H)-yl)piperidine-2,6-dione], the half-maximal degradation concentration (DC50) was > 100 nM.

As to `C[C@@H]1Cc2c([nH]c3ccccc23)[C@@H](c2c(F)cc(-c3ccc(C(=O)N4CCC(N5Cc6cc7c(cc6C5)C(=O)N(C5CCC(=O)NC5=O)C7=O)CC4)cc3)cc2F)N1CC(F)F` (stereo partly drawn) [E 347, 6-(1-(4′-((1R,3R)-2-(2,2-difluoroethyl)-3-methyl-2,3,4,9-tetrahydro-1H-pyrido[3,4-b]indol-1-yl)-3′,5′-difluoro-[1,1′-biphenyl]-4-carbonyl)piperidin-4-yl)-2-(2,6-dioxopiperidin-3-yl)-6,7-dihydropyrrolo[3,4-f]isoindole-1,3(2H,5H)-dione], the DC50 was < 10 nM.

The experiment is the same for the next values; noted with them: compounds 16 hours, Table A does not say whether T47D or MCF7, read-out: Potency (DC50).
Turning to `C[C@@H]1Cc2c([nH]c3ccccc23)[C@@H](c2ccc(C3=CCC4(CC3)CCN(C(=O)CN3Cc5cc6c(cc5C3)C(=O)N(C3CCC(=O)NC3=O)C6=O)CC4)cc2F)N1CC(F)F` (stereo partly drawn) [E 477, 6-(2-(9-(4-((1R,3R)-2-(2,2-difluoroethyl)-3-methyl-2,3,4,9-tetrahydro-1H-pyrido[3,4-b]indol-1-yl)-3-fluorophenyl)-3-azaspiro[5.5]undec-8-en-3-yl)-2-oxoethyl)-2-(2,6-dioxopiperidin-3-yl)-6,7-dihydropyrrolo[3,4-f]isoindole-1,3(2H,5H)-dione], the 50% degradation concentration (DC50) is > 100 nM. Still for that read-out and setting: to `C[C@@H]1Cc2c([nH]c3ccccc23)[C@@H](c2ccc(C3=CCC(C(=O)N4CCC(N5Cc6cc7c(cc6C5)C(=O)N(C5CCC(=O)NC5=O)C7=O)CC4)CC3)cc2F)N1CC(C)(C)F` (stereo partly drawn) [E 481, 2-(2,6-dioxopiperidin-3-yl)-6-(1-(3′-fluoro-4′-((1R,3R)-2-(2-fluoro-2-methylpropyl)-3-methyl-2,3,4,9-tetrahydro-1H-pyrido[3,4-b]indol-1-yl)-2,3,4,5-tetrahydro-[1,1′-biphenyl]-4-carbonyl)piperidin-4-yl)-6,7-dihydropyrrolo[3,4-f]isoindole-1,3(2H,5H)-dione] belongs 10 to 100 nM.
